Test results from ChEMBL document CHEMBL2150859, “Design, synthesis, and evaluation of 3,5-disubstituted 7-azaindoles as Trk inhibitors with anticancer and antiangiogenic activities” (J Med Chem, 2012).

Tests used:
[1] = molecular target: T1, Phosphatidylinositol 4,5-bisphosphate 3-kinase catalytic subunit alpha isoform (Homo sapiens, UniProt P42336); test: Binding affinity to PI3Kalpha at 10 uM by high throughput binding assay relative to control
[2] = molecular target: T2, High affinity nerve growth factor receptor (Homo sapiens, UniProt P04629); test: Binding affinity to TRKA at 10 uM by high throughput binding assay relative to control
Target sequence in this assay (P04629 33-796 limits assumed): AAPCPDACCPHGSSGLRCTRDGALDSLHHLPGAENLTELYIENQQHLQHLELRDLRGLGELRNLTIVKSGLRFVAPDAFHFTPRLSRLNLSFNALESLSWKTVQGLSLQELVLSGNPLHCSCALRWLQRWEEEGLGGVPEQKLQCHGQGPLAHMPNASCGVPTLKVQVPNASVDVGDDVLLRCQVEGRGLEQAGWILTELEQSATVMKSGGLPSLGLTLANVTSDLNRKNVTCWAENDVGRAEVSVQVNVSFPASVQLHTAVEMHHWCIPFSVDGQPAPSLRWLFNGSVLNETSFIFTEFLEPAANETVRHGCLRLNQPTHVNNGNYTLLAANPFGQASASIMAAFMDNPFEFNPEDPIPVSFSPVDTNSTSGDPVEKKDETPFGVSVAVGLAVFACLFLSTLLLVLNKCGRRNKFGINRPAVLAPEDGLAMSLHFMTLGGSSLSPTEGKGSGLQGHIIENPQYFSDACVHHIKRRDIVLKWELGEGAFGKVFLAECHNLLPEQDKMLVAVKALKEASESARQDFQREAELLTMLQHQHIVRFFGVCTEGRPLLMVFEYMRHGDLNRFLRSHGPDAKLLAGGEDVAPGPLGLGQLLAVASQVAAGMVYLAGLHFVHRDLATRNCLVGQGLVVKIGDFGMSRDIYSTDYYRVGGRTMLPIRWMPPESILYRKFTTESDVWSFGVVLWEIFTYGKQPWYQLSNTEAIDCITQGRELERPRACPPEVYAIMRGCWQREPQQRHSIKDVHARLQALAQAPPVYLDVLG

[3] = molecular target: T2, High affinity nerve growth factor receptor; test: Binding affinity to TRKA by high throughput assay
Target sequence in this assay (P04629 whole entry): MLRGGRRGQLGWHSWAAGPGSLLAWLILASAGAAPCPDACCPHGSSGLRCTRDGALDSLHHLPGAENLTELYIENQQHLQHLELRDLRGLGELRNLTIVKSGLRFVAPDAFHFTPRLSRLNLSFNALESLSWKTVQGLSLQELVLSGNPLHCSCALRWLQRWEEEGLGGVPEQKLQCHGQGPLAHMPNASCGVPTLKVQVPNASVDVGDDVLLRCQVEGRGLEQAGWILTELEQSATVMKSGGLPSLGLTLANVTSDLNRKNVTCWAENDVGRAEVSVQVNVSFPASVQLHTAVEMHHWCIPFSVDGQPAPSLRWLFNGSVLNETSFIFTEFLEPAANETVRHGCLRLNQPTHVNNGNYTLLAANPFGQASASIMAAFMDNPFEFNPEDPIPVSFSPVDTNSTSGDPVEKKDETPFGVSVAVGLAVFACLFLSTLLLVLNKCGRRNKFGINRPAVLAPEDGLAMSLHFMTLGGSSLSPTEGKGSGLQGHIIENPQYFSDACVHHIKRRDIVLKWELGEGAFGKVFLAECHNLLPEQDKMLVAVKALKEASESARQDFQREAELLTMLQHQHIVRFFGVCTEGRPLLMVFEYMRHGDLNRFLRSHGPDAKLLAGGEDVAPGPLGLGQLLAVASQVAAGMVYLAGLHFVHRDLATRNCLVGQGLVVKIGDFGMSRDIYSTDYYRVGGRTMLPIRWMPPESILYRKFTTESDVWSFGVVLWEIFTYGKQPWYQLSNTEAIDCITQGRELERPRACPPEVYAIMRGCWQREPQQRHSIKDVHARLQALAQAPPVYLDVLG

MCF7 = test: cells; conditions: Homo sapiens, MCF7, 48 h
Description: Cytotoxicity against human MCF7 cells after 48 hrs by MTT assay

[4] = molecular target: T2, High affinity nerve growth factor receptor; test: Inhibition of TRKA assessed as [gamma33P]ATP incorporation into substrate
Target sequence in this assay (P04629 whole entry): as above

[5] = Selectivity ratio of Kd for PI3Kalpha to Kd for TRKA
[6] = molecular target: T1, Phosphatidylinositol 4,5-bisphosphate 3-kinase catalytic subunit alpha isoform; test: Binding affinity to PI3Kalpha by high throughput assay

T1 sequence (P42336 whole entry, canonical isoform): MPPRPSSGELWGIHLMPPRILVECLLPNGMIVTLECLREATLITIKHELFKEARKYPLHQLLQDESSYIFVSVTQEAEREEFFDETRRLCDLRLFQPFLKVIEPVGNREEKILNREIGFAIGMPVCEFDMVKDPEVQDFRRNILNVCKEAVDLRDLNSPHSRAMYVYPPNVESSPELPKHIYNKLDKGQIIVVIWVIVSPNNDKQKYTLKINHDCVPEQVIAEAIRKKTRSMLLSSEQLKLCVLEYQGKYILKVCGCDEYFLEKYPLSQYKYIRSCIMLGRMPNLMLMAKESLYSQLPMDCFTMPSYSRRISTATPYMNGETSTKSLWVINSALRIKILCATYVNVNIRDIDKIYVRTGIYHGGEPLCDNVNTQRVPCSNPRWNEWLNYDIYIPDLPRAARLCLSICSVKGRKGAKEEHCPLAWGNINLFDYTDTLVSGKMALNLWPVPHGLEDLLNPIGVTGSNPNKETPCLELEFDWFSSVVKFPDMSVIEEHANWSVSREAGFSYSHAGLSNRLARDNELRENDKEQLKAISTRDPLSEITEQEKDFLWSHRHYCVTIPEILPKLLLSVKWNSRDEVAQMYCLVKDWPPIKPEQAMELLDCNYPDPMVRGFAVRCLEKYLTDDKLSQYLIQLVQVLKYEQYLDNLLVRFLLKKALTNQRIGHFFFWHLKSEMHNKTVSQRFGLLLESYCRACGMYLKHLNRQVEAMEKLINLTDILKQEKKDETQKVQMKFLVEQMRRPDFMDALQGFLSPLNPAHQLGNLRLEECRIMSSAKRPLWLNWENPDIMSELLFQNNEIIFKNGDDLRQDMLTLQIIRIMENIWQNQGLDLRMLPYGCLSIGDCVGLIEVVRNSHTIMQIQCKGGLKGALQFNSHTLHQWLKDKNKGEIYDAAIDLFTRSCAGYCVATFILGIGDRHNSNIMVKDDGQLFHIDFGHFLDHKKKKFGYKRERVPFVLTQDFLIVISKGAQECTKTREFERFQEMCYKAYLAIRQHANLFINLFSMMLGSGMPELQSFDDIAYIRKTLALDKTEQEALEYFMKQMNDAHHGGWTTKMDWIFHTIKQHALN

| Structure (SMILES) | Activity [1] [%] | Activity [2] [%] | Kd [3] [µM] | IC50 (MCF7) [µM] | IC50 [4] [µM] | Selectivity ratio [5] | Kd [6] [µM] |
| --- | --- | --- | --- | --- | --- | --- | --- |
| Nc1cccc(-c2cnc3[nH]cc(-c4ccccc4)c3c2)c1 | 100 | 0.3 | 0.088 | – | – | – | – |
| Nc1cc(OCCN2CCOCC2)cc(-c2cnc3[nH]cc(-c4ccncc4)c3c2)c1 | – | – | – | 11.2 | 0.00836 | – | – |
| CN(C)CCOc1cc(N)cc(-c2cnc3[nH]cc(-c4ccncc4)c3c2)c1 | – | – | – | 11.2 | 0.0136 | – | – |
| COc1ccc(-c2c[nH]c3ncc(-c4cncc(N)c4)cc23)cc1OC | 12 | 0.05 | 0.058 | – | – | 17 | 0.96 |
| CN(C)c1cccc(-c2cnc3[nH]cc(-c4ccncc4)c3c2)c1 | – | – | – | 12.1 | 0.0265 | – | – |
| COc1ccc(-c2c[nH]c3ncc(-c4cccc(NS(=O)(=O)c5ccccc5)c4)cc23)cc1OC | 31 | 0.2 | 0.091 | – | – | 25 | 2.3 |
| CS(=O)(=O)Nc1cccc(-c2c[nH]c3ncc(-c4cncc(NS(=O)(=O)c5ccccc5)c4)cc23)c1 | 0.9 | 9.6 | – | – | – | – | – |
| Nc1cc(-c2cnc3[nH]cc(-c4ccncc4)c3c2)ccc1Cl | – | – | – | 12 | 0.0537 | – | – |
| Nc1cc(C(=O)N2CCOCC2)cc(-c2cnc3[nH]cc(-c4ccncc4)c3c2)c1 | – | – | – | > 30 | 0.0647 | – | – |
| CN(C)CCOc1ccc(-c2cnc3[nH]cc(-c4ccncc4)c3c2)cc1N | – | – | – | 3.1 | 0.047 | – | – |
| Nc1cc(-c2cnc3[nH]cc(-c4ccncc4)c3c2)ccc1C(=O)N1CCOCC1 | – | – | – | 8.5 | 0.0886 | – | – |
| N#Cc1cccc(-c2c[nH]c3ncc(-c4cccc(N)c4)cc23)c1 | 98 | 2.6 | 0.27 | – | – | – | – |
| COc1ccc(-c2cnc3[nH]cc(-c4ccncc4)c3c2)cc1N | – | – | – | 8.7 | 0.0332 | – | – |
| COc1ccc(-c2c[nH]c3ncc(-c4cncc(NS(=O)(=O)c5ccccc5)c4)cc23)cc1OC | 0.05 | 0.8 | 0.145 | – | – | 0.33 | 0.048 |
| COc1ccc(-c2c[nH]c3ncc(-c4cccc(N)c4)cc23)cc1OC | 59 | 1.3 | 0.125 | – | – | – | – |
| Nc1cccc(-c2cnc3[nH]cc(-c4cccnc4)c3c2)c1 | 42 | 0.2 | 0.075 | – | – | 60 | 4.5 |
| COc1ccc(-c2c[nH]c3ncc(-c4cccc(C#N)c4)cc23)cc1OC | 69 | 26 | – | – | – | – | – |
| COc1cccc(-c2cnc3[nH]cc(-c4ccncc4)c3c2)c1 | – | – | – | 11.7 | 0.0227 | – | – |
| Nc1cncc(-c2cnc3[nH]cc(-c4ccncc4)c3c2)c1 | – | – | – | 5.1 | 0.0696 | – | – |
| COc1ccc(N)cc1-c1cnc2[nH]cc(-c3ccncc3)c2c1 | – | – | – | 5.4 | 0.11 | – | – |
| N#Cc1cccc(-c2cnc3[nH]cc(-c4cccc(N)c4)c3c2)c1 | 48 | 0.65 | 0.11 | – | – | 109 | 12 |

Next, values leading:

| Activity [1] [%] | Activity [2] [%] | Kd [3] [µM] | IC50 (MCF7) [µM] | IC50 [4] [µM] | Selectivity ratio [5] | Kd [6] [µM] | Structure (SMILES) |
| --- | --- | --- | --- | --- | --- | --- | --- |
| – | – | – | 2.8 | 0.0222 | – | – | Cc1ccc(-c2cnc3[nH]cc(-c4ccncc4)c3c2)cc1N |
| – | – | – | – | 3.17 | – | – | Nc1ccc(NS(=O)(=O)c2ccccc2)c(-c2cnc3[nH]cc(-c4ccncc4)c3c2)c1 |
| – | – | – | 8.5 | 0.0186 | – | – | COc1cc(N)cc(-c2cnc3[nH]cc(-c4ccncc4)c3c2)c1 |
| – | – | – | 6.6 | 0.00297 | – | – | Nc1cc(NS(=O)(=O)c2ccc(F)cc2F)cc(-c2cnc3[nH]cc(-c4ccncc4)c3c2)c1 |
| – | – | – | 9.1 | 0.0343 | – | – | CC(=O)Nc1cccc(-c2cnc3[nH]cc(-c4ccncc4)c3c2)c1 |
| – | – | – | 7.7 | 0.025 | – | – | Nc1ccc(-c2cnc3[nH]cc(-c4ccncc4)c3c2)cc1 |
| – | – | – | 4.5 | 0.0314 | – | – | CNc1cccc(-c2cnc3[nH]cc(-c4ccncc4)c3c2)c1 |
| 31 | 0 | 0.064 | 2.3 | 0.0427 | – | 2.9 | Nc1cccc(-c2cnc3[nH]cc(-c4ccncc4)c3c2)c1 |
| – | – | – | > 30 | 0.00541 | – | – | CC(=O)Nc1cc(N)cc(-c2cnc3[nH]cc(-c4ccncc4)c3c2)c1 |
| – | – | – | 8.8 | 0.0094 | – | – | Nc1cc(NS(=O)(=O)c2ccccc2)cc(-c2cnc3[nH]cc(-c4ccncc4)c3c2)c1 |
| – | – | – | 10.4 | 0.00462 | – | – | Cc1ccc(S(=O)(=O)Nc2cc(N)cc(-c3cnc4[nH]cc(-c5ccncc5)c4c3)c2)cc1 |
| – | – | – | > 30 | 0.0338 | – | – | CS(=O)(=O)Nc1cc(N)cc(-c2cnc3[nH]cc(-c4ccncc4)c3c2)c1 |
